The source of these data is PMC8506967, “Binding specificity and function of the SWI/SNF subunit SMARCA4 bromodomain interaction with acetylated histone H3K14” (The Journal of Biological Chemistry, 2021).

Ends that are not written are not given here.

One experiment concerns the target T1, BAZ2B BD (Homo sapiens, UniProt Q9UIF8).
T1 sequence (Q9UIF8 2060-2164 limits assumed): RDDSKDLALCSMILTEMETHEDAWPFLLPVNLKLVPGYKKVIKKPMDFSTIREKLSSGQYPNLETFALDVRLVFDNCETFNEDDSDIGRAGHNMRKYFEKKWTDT
Briefly: ITC, BAZ2B bromodomain. The conditions noted are these: BAZ2B wt, GST +, 293 or 298 K, 10 mM HEPES, 100 mM NaCl, 2.5% glycerol, pH 7.3. The class given is binding.

For the next experiment, the system named is four family VIII BD. Particulars: cited from earlier work. From the text: How SMARCA4 targets, is recruited to, and interacts with chromatin substrates to induce ATP-dependent nucleosome remodeling has been a long-standing question. Recent structures of the SMARCA4 catalytic-core domain in complex with a nucleosome core particle, as well as a nucleosome-bound SWI/SNF complex comprising SMARCA4 and nine auxiliary subunits, provided insights into the mechanism of SWI/SNF remodeling ([25], [26]). But the structural basis underlying SMARCA4 recognition of its histone tail target has remained elusive despite the existence of SMARCA4 structures in the apo state ([1], [27] ...

Experiment [1] concerns Saccharomyces cerevisiae Sth1 (ScSth1) BD. The conditions noted are these: cited from earlier work. From the text:
How SMARCA4 targets, is recruited to, and interacts with chromatin substrates to induce ATP-dependent nucleosome remodeling has been a long-standing question. Recent structures of the SMARCA4 catalytic-core domain in complex with a nucleosome core particle, as well as a nucleosome-bound SWI/SNF complex comprising SMARCA4 and nine auxiliary subunits, provided insights into the mechanism of SWI/SNF remodeling ([25], [26]). […] Water-mediated hydrogen bonds stabilize the interaction between H3R17 and Tyr1270 on the αC-helix. || We next asked if the SMARCA4-specific residues are also conserved in other family VIII BDs that bind H3K14ac. […] PBRM-1 is an SWI/SNF accessory protein in the PBAF complex that contains six tandem N-terminal BDs ([42]). The second and fourth PBRM-1 BDs (BD(2) and BD(4)) bind H3K14ac ([43], [44]). Due to the low sequence homology outside of the central α A and αB helices ([1]), we aligned the family VIII BDs based on the superposition of their structures and added CeSMARCA4 to the alignm ...

In another experiment the test system is HsPBRM-1 BD(5). The conditions noted are these: PBRM-1 BD(5); cited from earlier work. The text has this:
We superimposed each family VIII BD structure onto the CeSMARCA4-BD structure and plotted the deviation for each residue (Fig. 5D and Fig. S2). […] The overall roo ...

For another experiment, the system named is ASH1L-BD. The conditions noted are these: cited from earlier work.
The test system of another experiment is SMARCA4. Particulars: C-terminal BD motif; cited from earlier work. From the text:
SMARCA4/BRG1 is an essential catalytic core subunit of the roughly two-megadalton Switch/Sucrose Nonfermenting (SWI/SNF) multiprotein complex, which uses the energy of ATP hydrolysis to remodel chromatin by perturbing interactions between histone core particles and DNA ([14], [15]). SMARCA4 can remodel nucleosomal substrates by itself in vitro ([16], [17]) and is functionally and structurally conserved among eukaryotes ([14], [18]).

A further experiment concerns PBRM-1 BD(2) and BD(4). The conditions noted are these: cited from earlier work. From the text: (§1) We next asked if the SMARCA4-specific residues are also conserved in other family VIII BDs that bind H3K14ac. […] PBRM-1 is an SWI/SNF accessory protein in the PBAF complex that contains six tandem N-terminal BDs ([42]). The second and fourth PBRM-1 BDs (BD(2) and BD(4)) bind H3K14ac ([43], [44]). Due to the low sequence homology outside of the central α A and αB helices ([1]), we aligned the family VIII BDs based on the superposition of their structures and added CeSMARCA4 to the alignm ...

The test system of another experiment is PBRM-1. Particulars: cited from earlier work.
Source text: as §1

The next experiment deals with SMARCA2. Particulars: cited from earlier work.
Source text: as §1

The target in another experiment is T2, human BAZ2B bromodomain (human).
T2 chain: T1 sequence (Q9UIF8 2060-2164 limits assumed)
Nature of the experiment: ITC.

Experiment [2] has as its target T3, CeSMARCA4 BD crystallisation construct (residues Lys1176–Glu1296, Phe1287Ser) (C. elegans, UniProt G5EF53 1176-1296, Phe1287Ser).
T3 construct: SWSN-4 (CeSMARCA4), C. elegans, bromodomain, residues Lys1176-Glu1296 with the point mutation Phe1287Ser; pGEX-6P-1 vector with an HRV 3C protease site; also called untagged CeSMARCA4 BD; source: E. coli BL21 (DE3), purified (Glutathione Sepharose, PreScission cleavage, Q Sepharose, Sephacryl S-200); not shown: GST, N-terminal, cleaved
T3 sequence (looked up): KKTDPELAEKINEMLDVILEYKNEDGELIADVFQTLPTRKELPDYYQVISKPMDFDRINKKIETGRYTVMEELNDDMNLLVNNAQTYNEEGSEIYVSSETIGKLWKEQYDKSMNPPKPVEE
Nature of the experiment: crystal structure; BD incubated with 2:1 M excess H3_(7–20)K14ac peptide at 4 °C, sitting-drop vapor diffusion, 35% PEG smear; 1.29 Å, space group P4_(1)2_(1)2. The conditions noted are these: both partners purified.

Experiment [3] has as its target T4, CeSMARCA4 GST–BD fusion (C. elegans SMARCA4/SWSN-4 bromodomain, residues D1179–N1289, GST-tagged) (C. elegans, UniProt G5EF53 1179-1289).
T4 construct: SWSN-4 (CeSMARCA4, ortholog of human SMARCA4/BRG1), C. elegans, bromodomain, residues D1179-N1289; Cloned from Bristol N2 cDNA into a pGEX vector; also called GST-CeSMARCA4; CeSMARCA4 BD; source: E. coli BL21 (DE3), purified (Glutathione Sepharose 4B, eluted with reduced glutathione, dialysed); not shown: GST, N-terminal, kept
T4 sequence (looked up): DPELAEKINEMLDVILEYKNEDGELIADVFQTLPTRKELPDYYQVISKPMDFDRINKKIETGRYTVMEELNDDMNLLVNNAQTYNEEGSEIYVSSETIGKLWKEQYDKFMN
Nature of the experiment: ITC; MicroCal Auto-iTC200, 293 or 298 K, 10 mM HEPES, 100 mM NaCl, 2.5% glycerol, pH 7.3; protein 50–100 μM in the cell, peptide 500–1000 μM in the syringe; single-site binding model. The conditions noted are these: both partners purified. A general note: ITC needs no label: the signal is the heat of the interaction.

Experiment [4] deals with T5, CeSMARCA4 BD with the GST tag cleaved off (ITC) (C. elegans, UniProt G5EF53 1179-1289).
T5 construct: SWSN-4 (CeSMARCA4), C. elegans, bromodomain; the Asp1179-Asn1289 construct is the one named for ITC; A protease site and cleavage are described only for the crystallisation construct (K1176-E1296, F1287S); also called CeSMARCA4 bromodomain, GST tag removed; source: E. coli BL21 (DE3), purified, GST tag cleaved off; not shown: GST, N-terminal, cleaved
T5 sequence (looked up): T4 sequence (looked up)
The experiment is described as above. Particulars: both partners purified.

The Kd is a measure of binding affinity in units of concentration. Lower therefore signals higher affinity. For `CC(=O)NCCCC[C@H](NC(=O)CNC(=O)CNC(=O)[C@@H](NC(=O)[C@H](CO)NC(=O)[C@H](CCCCN)NC(=O)[C@H](CCCNC(=N)N)NC(=O)[C@H](C)N)[C@@H](C)O)C(=O)N[C@@H](C)C(=O)N1CCC[C@H]1C(=O)N[C@@H](CCCNC(=N)N)C(=O)N[C@@H](CCCCN)C(=O)N[C@@H](CCC(N)=O)C(=O)N[C@@H](CC(C)C)C(=O)O` [H3_7–20K14ac], at BAZ2B BD, the dissociation constant (Kd) is 12.1 ± 0.2 µM.

Consider `O=C(/C=C/N1C[C@H]2C[C@@H]1CN2c1ccccn1)c1ccccc1O` [PFI-3], for which the “selectivity of chemical probe” value in the experiment on four family VIII BD is recorded as “selective for four family VIII BD”.

As for “H3K14ac: lysine 14 acetylation on histone H3 (ARKSTGGKAPRKQL; not fully specified (residue 8); also: K14 acetylation, chain position not given here)”, the “binding of mutated H3 peptide / acetylated mark to ScSth1 BD” value in experiment [1] is “binds more promiscuously”. Also, the “selective H3K14ac binding” value (in [1]; in the experiment on PBRM-1; in the experiment on SMARCA2) was “reported to selectivity bind” in each case. For the same molecule, the H3K14ac binding result in the experiment on HsPBRM-1 BD(5) is given as “cannot bind”; in the experiment with ASH1L-BD, “unable to bind”; with PBRM-1 BD(2) and BD(4) it was “bind”. In addition, the H3K14ac recognition entry in the experiment with SMARCA4 is “capable of recognizing”.

B1: histone H3_(7–20)K14ac peptide (peptide, UniProt P68431 8-21, looked up)
peptide: ARKSTGGK(Ac)APRKQL
notes: histone H3 N-terminal tail, residues 7-20; also called H3K14ac peptide
On to B1, for which the figures for the Kd (with human BAZ2B bromodomain; in experiment [3]; in experiment [4]) were 12.1 µM, 11.6 ± 0.1 µM and 23.4 ± 0.8 µM, respectively. The binding result in [2] was “binds”.
